Experimental data published in PubChem BioAssay (NCI).
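How tested: cells in 96-well plates exposed to compound for 48 hours at five concentrations. TGI: concentration producing complete growth inhibition.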

Key:
Assay in all cases: inhibition of tumour cell growth, NCI panel, 48 h
HCT-15 colon = tested on: HCT-15 colon
OVCAR-4 ovarian = tested on: OVCAR-4 ovarian
BT-549 breast = tested on: BT-549 breast
M14 melanoma = tested on: M14 melanoma
SF-295 CNS = tested on: SF-295 CNS
MDA-N = tested on: MDA-N
SK-MEL-2 melanoma = tested on: SK-MEL-2 melanoma
SNB-75 CNS = tested on: SNB-75 CNS
MALME-3M melanoma = tested on: MALME-3M melanoma
OVCAR-8 ovarian = tested on: OVCAR-8 ovarian
COLO 205 colon = tested on: COLO 205 colon
OVCAR-5 ovarian = tested on: OVCAR-5 ovarian
MOLT-4 leukemia = tested on: MOLT-4 leukemia
KM12 colon = tested on: KM12 colon
SK-MEL-5 melanoma = tested on: SK-MEL-5 melanoma
SN12C renal = tested on: SN12C renal
LOX IMVI melanoma = tested on: LOX IMVI melanoma
HL-60(TB) leukemia = tested on: HL-60(TB) leukemia
DU-145 prostate = tested on: DU-145 prostate
SF-268 CNS = tested on: SF-268 CNS
U251 CNS = tested on: U251 CNS
NCI-H226 lung = tested on: NCI-H226 lung
A549 NSCLC = tested on: A549 NSCLC
NCI/ADR-RES ovarian = tested on: NCI/ADR-RES ovarian
HCT-116 colon = tested on: HCT-116 colon
SK-OV-3 ovarian = tested on: SK-OV-3 ovarian
NCI-H23 lung = tested on: NCI-H23 lung
MDA-MB-231 breast = tested on: MDA-MB-231 breast
OVCAR-3 ovarian = tested on: OVCAR-3 ovarian
MDA-MB-435 = tested on: MDA-MB-435
SK-MEL-28 melanoma = tested on: SK-MEL-28 melanoma
ACHN renal = tested on: ACHN renal
SF-539 CNS = tested on: SF-539 CNS
T-47D breast = tested on: T-47D breast
MCF7 breast = tested on: MCF7 breast
HS 578T breast = tested on: HS 578T breast
UO-31 renal = tested on: UO-31 renal
PC-3 prostate = tested on: PC-3 prostate
NCI-H522 lung = tested on: NCI-H522 lung
HT29 colon = tested on: HT29 colon
UACC-62 melanoma = tested on: UACC-62 melanoma
UACC-257 melanoma = tested on: UACC-257 melanoma
CAKI-1 renal = tested on: CAKI-1 renal
CCRF-CEM leukemia = tested on: CCRF-CEM leukemia
TK-10 renal = tested on: TK-10 renal
IGROV1 ovarian = tested on: IGROV1 ovarian
EKVX NSCLC = tested on: EKVX NSCLC
HCC-2998 colon = tested on: HCC-2998 colon
K-562 leukemia = tested on: K-562 leukemia
RPMI-8226 leukemia = tested on: RPMI-8226 leukemia
NCI-H460 lung = tested on: NCI-H460 lung
SNB-19 CNS = tested on: SNB-19 CNS
786-0 renal = tested on: 786-0 renal
SW-620 colon = tested on: SW-620 colon
A498 renal = tested on: A498 renal
RXF 393 renal = tested on: RXF 393 renal
HOP-62 NSCLC = tested on: HOP-62 NSCLC

CC1=CCCC(C)(O)C2CC(CCC3(C)OC3CC1)C(C)C(=O)O2 (configuration not stated)
TGI (HCT-15 colon): > 100 µM | TGI (OVCAR-4 ovarian): > 100 µM | TGI (BT-549 breast): > 100 µM | TGI (M14 melanoma): > 100 µM | TGI (SF-295 CNS): > 100 µM | TGI (MDA-N): > 100 µM | TGI (SK-MEL-2 melanoma): > 100 µM | TGI (SNB-75 CNS): > 100 µM | TGI (MALME-3M melanoma): > 100 µM | TGI (OVCAR-8 ovarian): > 100 µM | TGI (COLO 205 colon): > 100 µM | TGI (OVCAR-5 ovarian): > 100 µM | TGI (MOLT-4 leukemia): > 100 µM | TGI (KM12 colon): > 100 µM | TGI (SK-MEL-5 melanoma): > 100 µM | TGI (SN12C renal): > 100 µM | TGI (LOX IMVI melanoma): > 100 µM | TGI (HL-60(TB) leukemia): > 100 µM | TGI (DU-145 prostate): > 100 µM | TGI (SF-268 CNS): > 100 µM | TGI (U251 CNS): > 100 µM | TGI (NCI-H226 lung): > 100 µM | TGI (A549 NSCLC): > 100 µM | TGI (NCI/ADR-RES ovarian): > 100 µM | TGI (HCT-116 colon): > 100 µM | TGI (SK-OV-3 ovarian): > 100 µM | TGI (NCI-H23 lung): > 100 µM | TGI (MDA-MB-231 breast): > 100 µM | TGI (OVCAR-3 ovarian): > 100 µM | TGI (MDA-MB-435): > 100 µM | TGI (SK-MEL-28 melanoma): > 100 µM | TGI (ACHN renal): > 100 µM | TGI (SF-539 CNS): > 100 µM | TGI (T-47D breast): > 100 µM | TGI (MCF7 breast): > 100 µM | TGI (HS 578T breast): > 100 µM | TGI (UO-31 renal): > 100 µM | TGI (PC-3 prostate): > 100 µM | TGI (NCI-H522 lung): > 100 µM | TGI (HT29 colon): > 100 µM | TGI (UACC-62 melanoma): > 100 µM | TGI (UACC-257 melanoma): > 100 µM | TGI (CAKI-1 renal): > 100 µM | TGI (CCRF-CEM leukemia): > 100 µM | TGI (TK-10 renal): > 100 µM | TGI (IGROV1 ovarian): > 100 µM | TGI (EKVX NSCLC): > 100 µM | TGI (HCC-2998 colon): > 100 µM | TGI (K-562 leukemia): > 100 µM | TGI (RPMI-8226 leukemia): > 100 µM | TGI (NCI-H460 lung): > 100 µM | TGI (SNB-19 CNS): > 100 µM | TGI (786-0 renal): > 100 µM | TGI (SW-620 colon): > 100 µM | TGI (A498 renal): > 100 µM

CNc1cc(OCc2ccccc2)c(OC)cc1C(=O)N1CCC[C@H]1CO
TGI (HCT-15 colon): > 100 µM | TGI (OVCAR-4 ovarian): > 100 µM | TGI (BT-549 breast): > 100 µM | TGI (M14 melanoma): > 100 µM | TGI (SF-295 CNS): > 100 µM | TGI (MDA-N): > 100 µM | TGI (RXF 393 renal): > 100 µM | TGI (SK-MEL-2 melanoma): > 100 µM | TGI (SNB-75 CNS): > 100 µM | TGI (HOP-62 NSCLC): > 100 µM | TGI (MALME-3M melanoma): > 100 µM | TGI (OVCAR-8 ovarian): > 100 µM | TGI (COLO 205 colon): > 100 µM | TGI (OVCAR-5 ovarian): > 100 µM | TGI (MOLT-4 leukemia): > 100 µM | TGI (KM12 colon): > 100 µM | TGI (SK-MEL-5 melanoma): > 100 µM | TGI (SN12C renal): > 100 µM | TGI (LOX IMVI melanoma): > 100 µM | TGI (HL-60(TB) leukemia): > 100 µM | TGI (DU-145 prostate): > 100 µM | TGI (SF-268 CNS): > 100 µM | TGI (U251 CNS): > 100 µM | TGI (NCI-H226 lung): > 100 µM | TGI (A549 NSCLC): > 100 µM | TGI (NCI/ADR-RES ovarian): > 100 µM | TGI (HCT-116 colon): > 100 µM | TGI (SK-OV-3 ovarian): > 100 µM | TGI (NCI-H23 lung): > 100 µM | TGI (MDA-MB-231 breast): > 100 µM | TGI (MDA-MB-435): > 100 µM | TGI (SK-MEL-28 melanoma): > 100 µM | TGI (ACHN renal): > 100 µM | TGI (SF-539 CNS): > 100 µM | TGI (T-47D breast): > 100 µM | TGI (MCF7 breast): > 100 µM | TGI (HS 578T breast): > 100 µM | TGI (UO-31 renal): > 100 µM | TGI (PC-3 prostate): > 100 µM | TGI (NCI-H522 lung): > 100 µM | TGI (HT29 colon): > 100 µM | TGI (UACC-62 melanoma): > 100 µM | TGI (UACC-257 melanoma): > 100 µM | TGI (CAKI-1 renal): > 100 µM | TGI (CCRF-CEM leukemia): > 100 µM | TGI (TK-10 renal): > 100 µM | TGI (IGROV1 ovarian): > 100 µM | TGI (EKVX NSCLC): > 100 µM | TGI (SNB-19 CNS): > 100 µM | TGI (786-0 renal): > 100 µM | TGI (SW-620 colon): > 100 µM | TGI (A498 renal): > 100 µM

COc1ccc(-c2nc3ccccc3c(=O)[nH]2)c(OC)c1
TGI (HCT-15 colon): > 100 µM | TGI (OVCAR-4 ovarian): > 100 µM | TGI (BT-549 breast): > 100 µM | TGI (M14 melanoma): > 100 µM | TGI (SF-295 CNS): > 100 µM | TGI (MDA-N): > 100 µM | TGI (RXF 393 renal): > 100 µM | TGI (SK-MEL-2 melanoma): > 100 µM | TGI (SNB-75 CNS): > 100 µM | TGI (HOP-62 NSCLC): > 100 µM | TGI (MALME-3M melanoma): > 100 µM | TGI (OVCAR-8 ovarian): > 100 µM | TGI (COLO 205 colon): > 100 µM | TGI (OVCAR-5 ovarian): > 100 µM | TGI (MOLT-4 leukemia): > 100 µM | TGI (KM12 colon): > 100 µM | TGI (SK-MEL-5 melanoma): > 100 µM | TGI (SN12C renal): > 100 µM | TGI (DU-145 prostate): > 100 µM | TGI (SF-268 CNS): > 100 µM | TGI (U251 CNS): > 100 µM | TGI (NCI-H226 lung): > 100 µM | TGI (A549 NSCLC): > 100 µM | TGI (NCI/ADR-RES ovarian): > 100 µM | TGI (HCT-116 colon): > 100 µM | TGI (SK-OV-3 ovarian): > 100 µM | TGI (NCI-H23 lung): > 100 µM | TGI (MDA-MB-231 breast): > 100 µM | TGI (OVCAR-3 ovarian): > 100 µM | TGI (MDA-MB-435): > 100 µM | TGI (ACHN renal): > 100 µM | TGI (T-47D breast): > 100 µM | TGI (MCF7 breast): > 100 µM | TGI (HS 578T breast): > 100 µM | TGI (UO-31 renal): > 100 µM | TGI (PC-3 prostate): > 100 µM | TGI (HT29 colon): > 100 µM | TGI (UACC-62 melanoma): > 100 µM | TGI (UACC-257 melanoma): > 100 µM | TGI (CAKI-1 renal): > 100 µM | TGI (CCRF-CEM leukemia): > 100 µM | TGI (IGROV1 ovarian): > 100 µM | TGI (EKVX NSCLC): > 100 µM | TGI (HCC-2998 colon): > 100 µM | TGI (RPMI-8226 leukemia): 83.4 µM | TGI (NCI-H460 lung): > 100 µM | TGI (SNB-19 CNS): > 100 µM | TGI (786-0 renal): > 100 µM | TGI (SW-620 colon): > 100 µM | TGI (A498 renal): > 100 µM
